Assay results from paper PMC11597774, “Investigation of Antimicrobial and Anti-Inflammatory Efficacy of Newly Synthesized Pyrogallol-Coumarin Hybrids: In Vitro and In Silico Studies” (Pharmaceutics, 2024).
Converted amounts (≈) assume the structure as drawn. Where two headings read alike, the source gives them in different places.

Experiments:
[1] = tested on: L. plantarum 299V; assay: Microdilution MIC/MMC with resazurin; assay type: cell-based, Lactobacillus plantarum; details: for MIC: Lactiplantibacillus plantarum
Experimental: (§1) The antimicrobial activity of PCH-1 and PCH-2 was tested against 13 microorganisms. The experiment included four standard strains, Staphylococcus aureus ATCC 6538, Bacillus subtilis ATCC 6633, Proteus mirabilis ATCC 12453, and Pseudomonas aeruginosa ATCC 27853; five isolates, Staphylococcus aureus, Escherichia coli, Salmonella enterica, Klebsiella pneumoniae, and Bacillus subtilis; and one probiotic strain Lactobacillus plantarum 299V. Additionally, three fungal strains were tested, including one standard strain, Candida albicans ATCC 10231, and two isolates, Saccharomyces cerevisiae and probiotic strain Saccharomyces boulardii.
(§2) The bacterial suspensions were prepared using the direct colony method. The turbidity of the initial suspension was adjusted using a densitometer (DEN-1, BioSan, Latvia). When adjusted to the turbidity of the 0.5 McFarland standard, the bacterial suspension contains approximately 10^8 colony-forming units (CFU)/mL, and the yeast suspension contains approximately 10^6 CFU/mL. For the experiment, the initial suspension was further diluted at a 1:100 ratio in a sterile 0.85% saline solution.
(§3) The antimicrobial activity was assessed by determining the minimum inhibitory concentrations (MICs) and minimum microbicidal concentrations (MMCs) using the microdilution plate method with resazurin (Alfa Aesar GmbH & Co. (KG, Karlsruhe, Germany)). For this, 96-well plates were prepared by adding 100 μL of Mueller Hinton broth (Torlak, Belgrade, Serbia) for bacterial tests and Sabouraud broth (Torlak, Belgrade, Serbia) for yeast into each well. The tested PCH-1 and PCH-2 were dissolved in 10% dimethyl sulfoxide (DMSO) and then diluted into sterile distilled water. A 100 μL sample from the stock solution of the tested compound was then added to the first row of the plate, followed by twofold serial dilutions using a multichannel pipette. This produced a concentration range from 2.69 to 0.0025 µmol/L. The method is described in detail in the reported paper.
(§4) Each test setup included growth control and sterility control. […] Minimum microbicidal concentrations (MMCs) were determined as described in detail in the reported paper.

[2] = tested on: S. aureus ATCC 25923; assay: Microdilution MIC/MMC with resazurin; assay type: cell-based, Staphylococcus aureus; details: for MIC: Staphylococcus aureus, ATCC25923
[3] = tested on: S. enterica; assay: Microdilution MIC/MMC with resazurin; assay type: cell-based, Salmonella enterica; details: for MMC: S. enterica; for MIC: Salmonella enterica
Experimental: as §1, §2, §3, §4

[4] = tested on: S. cerevisiae; assay: Microdilution MIC/MMC with resazurin; assay type: cell-based, Saccharomyces cerevisiae; details: for MIC: Saccharomyces cerevisiae
Experimental: as §1, §2, §3, §4

[5] = tested on: B. subtilis (isolate); assay: Microdilution MIC/MMC with resazurin; assay type: cell-based, Bacillus subtilis; details: for MIC: Bacillus subtilis
Experimental: as §1, §2, §3, §4

[6] = tested on: B. subtilis ATCC 6633; assay: Microdilution MIC/MMC with resazurin; assay type: cell-based, Bacillus subtilis; details: for MIC: Bacillus subtilis, ATCC6633
Experimental: as §1, §2, §3, §4

[7] = tested on: S. aureus (isolate); assay: Microdilution MIC/MMC with resazurin; assay type: cell-based, Staphylococcus aureus; details: for MIC: Staphylococcus aureus
Experimental: as §1, §2, §3, §4

[8] = tested on: P. aeruginosa ATCC 27853; assay: Inhibition of biofilm formation (crystal violet); assay type: cell-based, Pseudomonas aeruginosa; details: for BIC90: P. aeruginosa ATCC 27853, 48 h; for IC50: Pseudomonas aeruginosa, ATCC27853, P. aeruginosa ATCC 27853, 48 h, read-out: BIC50
Experimental: (§5) The ability of S. aureus ATCC 6538, P. mirabilis ATCC 12453, and P. aeruginosa ATCC 27853 to form biofilms was assayed as described by O’Toole et al. (2000), with some modifications. Briefly, tissue culture 96-well microtiter plates (Sarstedt, Germany) were prepared by dispensing 100 µL of nutrient broth (i.e., Mueller Hinton broth) into each well. Then, 10 µL of spore suspension (1.0 McFarland for Gram-positive bacteria and 0.5 McFarland for Gram-negative bacteria) was added to each row. To encourage biofilm formation, all plates were incubated at 37 °C for 48 h, after which the content of each well was emptied and washed twice with 200 µL of sterile 0.85% saline to remove non-adherent cells. The biofilms formed were fixed by adding 100 µL of methanol until it evaporated completely, then stained with 0.1% (w/v) crystal violet (Fluka AG, Buchs, Switzerland) and left at room temperature for 20 min. The excess stain was washed away with deionized water, followed by […] of 96% ethanol. The optical densities (ODs) of the stained biofilms were measured with an ELISA plate reader (RT-2100C, Rayto, Shenzhen, China) at 630 nm. Control wells containing only broth were included to verify sterility and prevent nonspecific media binding. To account for background absorbance, OD readings from sterile medium, fixative, and dye were averaged and subtracted from all test measurements. All tests were conducted in duplicate. The tissue culture 96-well microtiter plates (Sarstedt, Germany) were prepared by dispensing 100 µL of nutrient broth (i.e., Mueller Hinton broth) into each well. From the stock solutions of tested PCH-1 and PCH-2 (at a concentration of 5.4 µmol/L), 100 µL was added to the first row of the microtiter plate. Twofold serial dilutions were then performed, followed by the addition of 10 µL of bacterial suspension to each well. The turbidity of the bacterial suspension was 0.5 McFarland for Gram-negative bacteria and 1.0 McFarland for Gram-positive bacteria. The microtiter plates prepared in this way were incubated at 37 °C for 48 h. The remaining steps of the experiment were carried out as outlined below. […] Only broth or broth with tested PCH-1 and PCH-2 served as controls to check sterility and nonspecific binding of media. To compensate for background absorbance, OD readings from sterile medium, extracts, fixative, and dye were averaged and subtracted from all test values. All tests were performed in duplicate.

[9] = tested on: P. mirabilis ATCC 12453; assay: Inhibition of biofilm formation (crystal violet); assay type: cell-based, Proteus mirabilis; details: for BIC90: P. mirabilis ATCC 12453, 48 h; for IC50: Proteus mirabilis, ATCC12453, P. mirabilis ATCC 12453, 48 h, read-out: BIC50
Experimental: as §5

[10] = tested on: E. coli; assay: Microdilution MIC/MMC with resazurin; assay type: cell-based, Escherichia coli; details: for MIC: Escherichia coli
Experimental: as §1, §2, §3, §4

[11] = tested on: S. aureus ATCC 25923; assay: Inhibition of biofilm formation (crystal violet); assay type: cell-based, Staphylococcus aureus; details: for BIC90: S. aureus ATCC 25923, 48 h
[12] = tested on: P. mirabilis ATCC 12453; assay: Microdilution MIC/MMC with resazurin; assay type: cell-based, Proteus mirabilis; details: for MIC: Proteus mirabilis, ATCC12453
Experimental: as §1, §2, §3, §4

[13] = Staphylococcus aureus, ATCC25923, S. aureus ATCC 25923, 48 h, read-out: BIC50

SMILES	MMC [1] [mM]	MIC [1] [µM]	MMC [2] [mM]	MIC [2] [µM]	MMC [3] [mM]	MIC [3] [µM]	MMC [4] [mM]	MIC [4] [µM]	MMC [5] [mM]	MIC [5] [µM]	MMC [6] [mM]	MIC [6] [µM]	MMC [7] [mM]	MIC [7] [µM]	BIC90 [8]	IC50 [8] [µM]	BIC90 [9]	IC50 [9] [µM]	MMC [10] [mM]	MIC [10] [µM]	further results
C/C(NNC(=O)c1cc(O)c(O)c(O)c1)=C1\C(=O)Oc2ccccc2C1=O [PCH-2, (E)-N′-(1-(2,4-dioxochroman-3-ylidene)ethyl)-3,4,5-trihydroxybenzohydrazide]	0.67	670 (≈ 248 µg/mL)	0.34	80 (≈ 29.6 µg/mL)	0.34	80 (≈ 29.6 µg/mL)	2.70	1350 (≈ 500 µg/mL)	1.35	1350 (≈ 500 µg/mL)	0.34	340 (≈ 126 µg/mL)	1.35	1350 (≈ 500 µg/mL)	˃2.70 mM	> 2700	˃2.70 mM	2150	0.34	170 (≈ 63 µg/mL)	IC50 ([11]; ATCC25923, Staphylococcus aureus ATCC 25923, read-out: BIC50): 378 µg/mL; BIC90 [11]: ˃2.70 mM; IC50 [11, 13]: 1020 µM; MMC [12]: 0.17 mM; MIC [12]: 80 µM (≈ 29.6 µg/mL)
C/C(NNC(=O)c1ccc(O)c(O)c1O)=C1\C(=O)Oc2ccccc2C1=O [PCH-1, (E)-N′-(1-(2,4-dioxochroman-3-ylidene)ethyl)-2,3,4-trihydroxybenzohydrazide]	2.70	2700 (≈ 1000 µg/mL)	0.17	170 (≈ 63 µg/mL)	0.17	170 (≈ 63 µg/mL)	2.70	1350 (≈ 500 µg/mL)	1.35	1350 (≈ 500 µg/mL)	2.70	2700 (≈ 1000 µg/mL)	2.70	2700 (≈ 1000 µg/mL)	˃2.70 mM	> 2700	˃2.70 mM	> 2700	0.34	340 (≈ 126 µg/mL)	BIC90 [11]: ˃2.70 mM; IC50 [11, 13]: > 2700 µM; MMC [12]: 0.17 mM; MIC [12]: 80 µM (≈ 29.6 µg/mL)
